Source: US11318126B2, “Composition for activating neurogenesis” (KYOTO UNIVERSITY, priority 2016, dated 2022)

Experiments:
DYRK1A [1] = target: T1, DYRK1A (Homo sapiens, UniProt Q13627); experiment: Western blotting of tau protein phosphorylation (threonine 212) in cultured cells expressing tau protein and DYRK1A protein; assay type: cell-based; settings: 0.3 μM, 1 μM, 3 μM, or 10 μM; antibody to phosphorylated threonine 212 of tau
Experimental: Tau protein, which is a substrate of a target kinase, was overexpressed in cells in the presence of Compound 4 or 10 at a concentration of 0.3 μM, 1 μM, 3 μM, or 10 μM, and the inhibitory activity of Compounds 4 and 10 was examined using the phosphorylation of the tau protein as an index.
FIG. 2 is an example of the result of Western blotting analysis of cultured cells in which the expression of both tau protein and DYRK1A protein was induced in the presence of Compound 4 or 10 at a concentration of 0.3 μM, 1 μM, 3 μM, or 10 μM, using an antibody that specifically recognizes the phosphorylated threonine residue at 212-position of tau protein was used to analyze.

Mouse neural stem cells = experiment: BrdU uptake in cultured mouse neural stem cells (Arrayscan); assay type: cell-based; settings: for incorporation of BrdU into neural stem cells (ratio of BrdU-positive cells relative to control): 1.25 μM, 2.5 μM, or 5 μM
Experimental: Mouse neural stem cells were treated with Compound 4 or 10, and then neural stem cell proliferating activity was examined using, as an index, uptake of 5-bromo-2′-deoxyuridine (BrdU), which is a nucleoside analog to be used as a proliferation index.
Specifically, isolated neural stem cells were cultured in the presence of BrdU and Compound 4 or 10 at a concentration of 1.25 μM, 2.5 μM, or 5 μM, so that proliferating cells were labeled. After the cells were fixed, BrdU was detected by an anti-BrdU antibody, and the ratio of proliferating cells that had incorporated the BrdU was quantitatively analyzed using Arrayscan (Thermo Scientific). […] In FIG. 3, “Control” indicates the results from adding no compounds, and “Solvent” indicates dimethyl sulfoxide (DMSO).

cyclin D1 [2] = experiment: Western blotting of cyclin D1 expression in HEK293 cells over time; assay type: cell-based; settings: treated over time
Experimental: HEK293 cells were treated with Compound 4 or 10 over time, and the expression level of cyclin D1 was examined through Western blotting.

DYRK1A [3] = target: T1, DYRK1A; experiment: in-vitro kinase assay against DYRK1A; assay type: biochemical; settings: for IC50: DYRK peptide as substrate, 10 μM ATP
Experimental: The inhibitory activity of Compounds 4 and 10 against DYRK1A was examined through in-vitro kinase assay (in-vitro kinase analysis).
The inhibitory activity of Compounds 4 and 10 against DYRK1A was examined in the presence of DYRK1A protein using a DYRK peptide as a substrate under the condition of 10 μM ATP.

cyclin D1 [4] = experiment: Western blotting of cyclin D1 expression in cultured mouse neural stem cells; assay type: cell-based; settings: relative to control
Experimental: Mouse neural stem cells were treated with Compound 4, 6, or 10, and the expression level of cyclin D1, which positively controls cell proliferation, was examined through Western blotting. FIGS. 4A and 4B show the results. In FIGS. 4A and 4B, “Control” indicates the results from adding no compounds, and “Solvent” indicates dimethyl sulfoxide (DMSO).

[5] = system: neural stem cells present in the dentate gyrus of the hippocampus; experiment: neurogenesis in the dentate gyrus of the hippocampus after 10-day administration; assay type: in vivo, rodent; settings: versus solvent administered group
Experimental: After 10-day long administration of Compound 4 to a rodent, BrdU was administered thereto, and the number of proliferating cells was quantitatively evaluated. […] In FIGS. 5B and 5C, “Solvent” indicates the results from adding no compound. FIG. 5A is a representative images of thin sections of the dentate gyrus of the hippocampus, and the image of Dapi staining (nucleus staining), the image of doublecortin (DCX) staining, and the image of BrdU staining are shown in the order from top to bottom. FIG. 5B is an example of a graph showing the number of BrdU-positive cells in the dentate gyrus of the hippocampus. FIG. 5C is an example of a graph showing the number of immature neurons in the dentate gyrus of the hippocampus as a relative value determined based on the result from the solvent sample taken as 1.

[6] = system: fibroblasts derived from human skin; experiment: flow cytometry cell cycle analysis of fibroblasts derived from human skin; assay type: cell-based; settings: 48 hours treatment
Experimental: Next, fibroblasts derived from human skin were treated with a solvent or Compound 4 for 48 hours, and the cell cycle was analyzed through flow cytometry. […] It is considered that this is because Compound 4 stabilized cyclin D1 and thus stimulated the progression of the cell cycle from the G1 phase to the subsequent S phase and G2/M phase.

[7] = system: neural stem cells isolated Down syndrome model mice (Ts1Cje); experiment: proliferation (BrdU-positive ratio) of neural stem cells from Down syndrome model mice; assay type: cell-based, mouse; settings: Ts1Cje versus wild-type
Experimental: Neural stem cells were prepared from wild-type mice and Down syndrome model mice (Ts1Cje: the same applies hereinafter), and the effect of Compound 4 on the proliferation of neural stem cells isolated Down syndrome model mice was examined. […] In FIG. 6, “Solvent” indicates the results from no adding compound.

[8] = system: Facial nerve palsy model mice; experiment: facial nerve palsy model, paralysis scores; assay type: in vivo, ICR mouse; settings: 10 mg/kg every day from an hour before the operation
Experimental: A facial nerve trunk (3 mm) of a rodent (ICR mouse; 6 to 8 weeks old) was extracted and compressed using a Mosquito forceps with a width of 1 mm for 30 seconds. Facial nerve palsy model mice were thus produced. Compound 4 (10 mg/kg) was administered every day from an hour before the operation (day 0), and paralysis scores relating to nictitation (“no eye-opening” to “cured”), a nose (“extended” to “cured”), and whiskers (“no movement” to “cured”) were evaluated according to four levels. […] In FIG. 9A, “Solvent” indicates the results from adding no compound.

[9] = system: Down syndrome model mice (fetus); experiment: thickness of the cerebral cortex of Down syndrome model fetuses after oral administration to pregnant mice; assay type: in vivo, mouse; settings: tenth to fifteenth day of fetal life
Experimental: Moreover, Compound 4 was orally administered to pregnant mice carrying Down syndrome model mice from the tenth day to fifteenth day of fetal life, and the thickness of the cerebral cortex was measured at the fifteenth day of fetal life. […] In FIGS. 7A and 7B, “Solvent” indicates the results from adding no compound.

[10] = system: Down syndrome model mice (Ts1Cje); experiment: neurogenesis in the dentate gyrus of the hippocampus of Down syndrome model mice; assay type: in vivo, mouse; settings: 8-week old Down syndrome model mice
Experimental: First, a solvent or Compound 4 was administered to 8-week old wild-type mice and 8-week old Down syndrome model mice, and the effect on neurogenesis in the dentate gyrus of the hippocampus was examined.

[11] = system: zebrafish spinal cord injury; experiment: zebrafish spinal cord injury model, migration distance by behavior analysis; assay type: in vivo; settings: in breeding water, sixth to eighth day after fertilization
Text: On the fifth day after fertilization, the zebrafish spinal cord was injured using an ophthalmic scalpel, and the zebrafish was bred in breeding water containing Compound 4 until the eighth day after fertilization.

Down syndrome model mice = experiment: learning and memory tests (Y maze, Barnes maze, fear conditioning) after prenatal administration; assay type: in vivo, mouse; settings: 10 mg/kg oral once a day to pregnant mice from tenth day of fetal life until birth; tested at 8 weeks
Experimental: Compound 4 (10 mg/kg) or a solvent was orally administered to pregnant mice carrying Down syndrome model mice once a day from the tenth day of fetal life until birth. After birth, at the age of 8 weeks, three types of tests (A. Y maze test for spontaneous alteration behavior, B. Barnes maze test for spatial memory, and C. fear conditioning test) were performed successively. FIGS. 8A to 8C show the results. In FIGS. 8A to 8C, “Solvent” indicates the results from adding no compound.

Compound	inhibitory effect against the phosphorylation of tau protein (DYRK1A [1])	incorporation of BrdU into neural stem cells (ratio of BrdU-positive cells relative to control) (Mouse neural stem cells)	protein level of cyclin D1 (cyclin D1 [2])	IC50 (DYRK1A [3]) [nM]	expression level of cyclin D1 (cyclin D1 [4])	melting point	also measured
c1cnc2ccc(-c3ccncc3)cc2c1 [Compound 10]	exhibited a high inhibitory effect	increased the amount of incorporation of BrdU	increased (i.e. the cyclin D1 was stabilized) in a treatment time dependent manner	59.7	significantly high		
c1ccc2c(-c3ccc4[nH]ncc4c3)cncc2c1 [Compound 6]	showed the same tendency as Compounds 4 and 10				significantly high		proliferation of cultured neural stem cells (Mouse neural stem cells; 2.5 μM and 5 μM): promoted the proliferation of cultured neural stem cells; inhibitory activity against DYRK1A (DYRK1A [3]; same experiment as Compounds 4 and 10): lower than that of Compounds 4 and 10
c1cc(-c2ccc3[nH]ncc3c2)c2cccnc2c1 [Compound 1, 5-(5-Quinolyl)indazole]						255 °C (dec.)	
c1cncc(-c2ccc3[nH]ncc3c2)c1 [Compound 4]	exhibited a high inhibitory effect	increased the amount of incorporation of BrdU	increased (i.e. the cyclin D1 was stabilized) in a treatment time dependent manner	55.6	significantly high		number of immature neurons in the dentate gyrus of the hippocampus [5]: significantly larger; number of proliferating cells (BrdU-positive) in the dentate gyrus of the hippocampus [5]: significantly larger; ratio of cell in the G2/M phase of the cell cycle [6]: increased; ratio of cells in the G1 phase of the cell cycle [6]: decreased; ratio of BrdU-positive cells in neural stem cells from Down syndrome model mice [7]: compensated for the reduced proliferation; paralysis scores (nictitation, nose, whiskers) [8]: tended to promote recovery; thickness of cortical layers [9]: compensated for the cerebral cortex with a reduced thickness; number of proliferating cells in dentate gyrus of the hippocampus [10]: compensated for the reduced neurogenesis; migration distance after spinal cord injury [11]: migration distance was recovered; cognitive function (Y maze, Barnes maze, fear conditioning tests) (Down syndrome model mice): improved the cognition function
c1cncc(Nc2cccc3ncccc23)c1 [Compound 8, 5-(3-Pyridylamino)quinoline]						180 °C (dec.)	
